One test addresses human P2X3 receptor (Homo sapiens (Human), UniProt P56373). The experiment in a line: Evaluation of human P2X3 receptor inhibitory activity (Fluo-3 calcium fluorescence, FDSS 3000, ATP stimulation).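 Note: stimulus was 50 nM ATP with fluorescence followed for 3 min, and the response per well was peak post-ATP fluorescence divided by the reading at measurement start.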 The format is cell-based. The conditions noted are these: C6BU-1 cells stably expressing human P2X3 receptor.
human P2X3 receptor, sequence (P56373 whole entry): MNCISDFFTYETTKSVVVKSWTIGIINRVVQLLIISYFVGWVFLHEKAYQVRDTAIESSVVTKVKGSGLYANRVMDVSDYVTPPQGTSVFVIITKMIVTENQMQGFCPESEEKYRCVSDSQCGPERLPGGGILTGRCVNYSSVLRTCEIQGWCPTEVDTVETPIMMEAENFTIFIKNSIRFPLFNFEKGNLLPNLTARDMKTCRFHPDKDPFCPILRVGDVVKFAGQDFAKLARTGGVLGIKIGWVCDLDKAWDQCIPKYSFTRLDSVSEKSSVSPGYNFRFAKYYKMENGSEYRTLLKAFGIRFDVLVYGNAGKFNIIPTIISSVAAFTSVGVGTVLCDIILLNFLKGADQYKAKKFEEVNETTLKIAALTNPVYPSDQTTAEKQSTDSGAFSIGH
For `Cc1cc(/N=c2\[nH]c(=O)n(C[C@H](O)CO)c(=O)n2Cc2ccc(Cl)cc2)ccc1OC(C)C` [Compound I-0722], the IC50 amounted to 14 nM.

Regarding `CCOC(=O)Cc1c(C)oc2ccc(/N=c3\[nH]c(=O)n(CC)c(=O)n3Cc3ccc(Cl)cc3)cc12` [Compound I-2149], the IC50 worked out at 791 nM.

On to `COC(=O)[C@H](C)Cn1c(=O)[nH]/c(=N\c2ccc(OC(C)C)c(C)c2)n(Cc2ccc(Cl)cc2)c1=O` [Compound I-0589], for which the IC50 was determined as 6 nM. Turning to `CCCc1ccc(/N=c2\[nH]c(=O)n(C[C@H](C)C(=O)O)c(=O)n2Cc2ccc(C)cc2)cc1OC` [Compound I-1365], the IC50 is 94 nM. Turning to `Cc1ccc(Cn2c(=O)n([C@H](C)[C@H](C)C(=O)O)c(=O)[nH]/c2=N\c2ccc(OC3CCC3)cc2)cc1` [Compound I-1457], the concentration for half-maximal inhibition (IC50) was determined as 14 nM. As for `CC(C)Oc1ccc(/N=c2\[nH]c(=O)n(Cc3cccn(C)c3=O)c(=O)n2Cc2ccc(Cl)cc2)cc1F` [Compound I-0689], the IC50 is 5 nM. On the same count and under the same terms, the same measure for `Cc1cc(/N=c2\[nH]c(=O)n([C@@H](C)[C@@H](C)C(=O)O)c(=O)n2Cc2ccc(Cl)cc2)ccc1OC1CCC1` [Compound I-1409]: 17 nM; for `CC(C)Oc1ccc(/N=c2\[nH]c(OCC(N)=O)nc(=O)n2Cc2ccc(Cl)cc2)cc1F` [Compound I-0587]: 299 nM; for `CC[C@@H](C)Oc1ccc(/N=c2\[nH]c(=O)n(C[C@H](C)C(=O)O)c(=O)n2Cc2ccc(Cl)cc2)cc1` [Compound I-0754]: 16 nM. The same measure, in the same setting: the same measure for `CC(C)Oc1ccc(/N=c2\[nH]c(OCC(=O)NCCO)nc(=O)n2Cc2ccc(Cl)cc2)cc1F` [Compound I-0582]: 365 nM; for `COCCOc1ccc(/N=c2\[nH]c(=O)n(C[C@H](C)C(=O)OC)c(=O)n2Cc2ccc(Cl)cc2)cc1` [Compound I-0745]: 125 nM; for `CC(C)Oc1ccc(/N=c2\[nH]c(=O)n(CCN/C(=N\C#N)Oc3ccccc3)c(=O)n2Cc2ccc(Cl)cc2)cc1F` [Compound I-0652, 1-(4-chlorobenzyl)-6-(3-fluoro-4-isopropoxyphenylimino)-3-(4-cyanoimino-4-phenoxy-3-azabutyl)-1,3,5-triazinane-2,4-dion]: 102 nM. Still for that read-out and setting: then `COC(=O)[C@@H](C)Cn1c(=O)[nH]/c(=N\c2ccc3ncccc3c2)n(Cc2ccc(Cl)cc2)c1=O` [Compound I-1318], with 544 nM; and `COC(=O)[C@@H](C)Cn1c(=O)[nH]/c(=N\c2cnc(OC3CCC3)c(C)c2)n(Cc2ccc(C)cc2)c1=O` [Compound I-1478], with 19 nM. For the compound `COC(=O)[C@@H](C)Cn1c(=O)[nH]/c(=N\c2ccc(Oc3cccnc3C)cc2)n(Cc2ccc(C)cc2)c1=O` [Compound I-1208], the IC50 was 21 nM. Same read-out and setting: then `COC(=O)C(C)(C)Cn1c(=O)[nH]/c(=N\c2cccc(C(F)(F)F)c2)n(Cc2ccc(C)cc2)c1=O` [Compound I-1258], with 8 nM; and `CCn1c(=O)[nH]/c(=N\c2ccc(Oc3nc(C(=O)O)cs3)cc2)n(Cc2ccc(Cl)cc2)c1=O` [Compound I-2193], with 6 nM; and `CC(C)Oc1ccc(/N=c2\[nH]c(=O)n(CC(=O)OC3CCOCC3)c(=O)n2Cc2ccc(Cl)cc2)cc1Cl` [Compound I-0673], with 8 nM. The same measure, in the same setting: then `CCn1c(=O)[nH]/c(=N\c2ccc(Oc3ccnc(O)n3)cc2)n(Cc2ccc(Cl)cc2)c1=O` [Compound I-2016], with 5 nM; and `Cc1cc(/N=c2\[nH]c(=O)n(Cc3ccc(C(=O)O)o3)c(=O)n2Cc2ccc(Cl)cc2)ccc1OC(C)C` [Compound I-0710], with 19 nM; and `CC(C)Oc1ccc(/N=c2\[nH]c(=O)n(CCC(=O)NO)c(=O)n2Cc2ccc(Cl)cc2)cc1F` [Compound I-0603], with 12 nM. Same read-out and setting: then `CCCOc1ccc(/N=c2\[nH]c(=O)n(C[C@H](C)C(=O)O)c(=O)n2Cc2ccc(Cl)cc2)cc1` [Compound I-0623], with 20 nM.

Staying with this test, now noted: C6BU-1 cells stably expressing human P2X3 receptor, Fluo-3 fluorescence, FDSS 3000.
Turning to `CC[C@H](C)Oc1ccc(/N=c2\[nH]c(=O)n(C[C@H](C)C(=O)O)c(=O)n2Cc2ccc(C)cc2)cc1Cl` [Compound I-1014], the IC50 worked out at 17 nM. Turning to `COC(=O)[C@@H](C)Cn1c(=O)[nH]/c(=N\c2ccc(OC(F)F)cc2)n(Cc2ccc(Cl)cc2)c1=O` [Compound I-1166], the IC50 worked out at 126 nM. For `CCc1oc2ccc(/N=c3\[nH]c(=O)n(CC(C)(C)C(=O)OC)c(=O)n3Cc3ccc(Cl)cc3)cc2c1C` [Compound I-1574], the IC50 amounted to 18 nM.

As to `CCOC(=O)CCn1c(=O)[nH]/c(=N\c2ccc(OC[C@@H](C)CC)cc2)n(Cc2ccc(C)cc2)c1=O` [Compound I-1051], the IC50 stood at 100 nM. The same measure, in the same setting: then `C/C=C/c1ccc(Cn2c(=O)n(C[C@H](C)C(=O)O)c(=O)[nH]/c2=N\c2ccc(OC(C)C)cc2)cc1` [Compound I-1160], with 973 nM; and `CCOc1ccc(/N=c2\[nH]c(=O)n(C[C@H](O)CO)c(=O)n2Cc2ccc(Cl)cc2)cc1Cl` [Compound I-1907], with 8 nM; and `COC(=O)[C@@H](C)Cn1c(=O)[nH]/c(=N\c2ccc(N3CCCC3)cc2)n(Cc2ccc(C)cc2)c1=O` [Compound I-1086], with 291 nM. Consider `Cc1ccc(Cn2c(=O)n(C[C@H](C)C(=O)O)c(=O)[nH]/c2=N\c2ccc(OC(F)(F)F)c(Cl)c2)cc1` [Compound I-1033], for which the IC50 was 67 nM. The same measure, in the same setting: the same measure for `CCn1c(=O)[nH]/c(=N\c2ccc(Oc3cccc(C(=O)O)c3)cc2)n(Cc2ccc(Cl)cc2)c1=O` [Compound I-1881]: 6 nM; for `COC(=O)[C@@H](C)Cn1c(=O)nc(Cc2ccccc2C)n(Cc2ccc(Cl)cc2)c1=O` [Compound I-1865]: 357 nM. Same read-out and setting: the same measure for `CCn1c(=O)[nH]/c(=N\c2ccc(Oc3cncc(C(=O)OC)c3)cc2)n(Cc2ccc(Cl)cc2)c1=O` [Compound I-1863]: 5 nM; for `O=C(NCC(F)(F)F)c1cc(Oc2ccc(/N=c3\[nH]c(=O)[nH]c(=O)n3Cc3ccc(Cl)cc3)cc2)ccn1` [Compound I-1898]: 11 nM; for `Cn1c(=O)[nH]/c(=N\c2ccc(Oc3ccnc(O)c3)cc2)n(Cc2ccc(Cl)cc2)c1=O` [Compound I-1736]: 9 nM. Still for that read-out and setting: then `CC[C@@H](C)Oc1ccc(/N=c2\[nH]c(=O)n(C[C@H](C)C(=O)O)c(=O)n2Cc2ccc(C)cc2)cc1Cl` [Compound I-1013], with 5 nM; and `COC(=O)[C@@H](C)Cn1c(=O)[nH]/c(=N\c2ccc(OCCC(C)C)cc2)n(Cc2ccc(C)cc2)c1=O` [Compound I-1049], with 177 nM. Turning to `Cc1ccc(Cn2c(=O)n([C@@H](C)[C@@H](C)C(=O)O)c(=O)[nH]/c2=N\c2ccc(OC(C)C)c(C)c2)cc1` [Compound I-0930], the IC50 came out at 30 nM. The same measure, in the same setting: then `CCc1nc2ccc(/N=c3\[nH]c(=O)n(CC(C)(C)C(=O)O)c(=O)n3Cc3ccc(Cl)cc3)cc2s1` [Compound I-1578], with 6 nM; and `Cc1cc(/N=c2\[nH]c(=O)n(CC3COC(C)(C)OC3)c(=O)n2Cc2ccc(Cl)cc2)ccc1OC(C)C` [Compound I-1899], with 4 nM. With `Cc1cc(Oc2ccc(/N=c3\[nH]c(=O)n(C[C@H](C)C(=O)O)c(=O)n3Cc3ccc(Cl)cc3)cc2)no1` [Compound I-1662], the IC50 is 11 nM. With `CC(C)Oc1ccc(/N=c2\[nH]c(=O)n(CC(=O)NS(C)(=O)=O)c(=O)n2Cc2ccc(Cl)cc2)cc1Cl` [Compound I-1876], the IC50 was 35 nM. Still for that read-out and setting: then `CCn1c(=O)[nH]/c(=N\c2ccc(Oc3ccc(C(N)=O)cc3)cc2)n(Cc2ccc(Cl)cc2)c1=O` [Compound I-1870], with 4 nM; and `CCc1oc2ccc(/N=c3\[nH]c(=O)n(CC(=O)NC)c(=O)n3Cc3ccc(Cl)cc3)cc2c1C` [Compound I-1657], with 9 nM.

The test is the same for the next values; noted with them: human P2X3 receptor, Test Example 1.
For `NCCn1c(=O)[nH]/c(=N\c2ccc(Oc3ccon3)cc2)n(Cc2ccc(Cl)cc2)c1=O` [Compound I-2523], the concentration for half-maximal inhibition (IC50) was determined as 169 nM.

Take `CCn1c(=O)[nH]/c(=N\c2ccc(Oc3ccnc(NCC(=O)O)c3)cc2)n(Cc2ccc(Cl)cc2)c1=O` [Compound I-2556]: the IC50 was determined as 5 nM. On the same count and under the same terms, the same measure for `NC(=O)c1ccc(Oc2ccc(/N=c3\[nH]c(=O)n(CCO)c(=O)n3Cc3ccc(Cl)cc3)cc2)cc1` [Compound I-2559]: 8 nM; for `Cc1cccc(Oc2ccc(/N=c3\[nH]c(=O)n(CC(CO)CO)c(=O)n3Cc3ccc(Cl)cc3)cc2)n1` [Compound I-2610]: 12 nM. Same read-out and setting: the same measure for `COC(=O)[C@@H](C)Cn1c(=O)[nH]/c(=N\c2ccc(OCC(C)C)c(C)c2)n(Cc2ccc(C)cc2)c1=O` [Compound I-0832]: 103 nM; for `NC(=O)Cn1c(=O)[nH]/c(=N\c2ccc(Oc3ccnnc3)cc2)n(Cc2ccc(Cl)cc2)c1=O` [Compound I-2695]: 10 nM. As to `O=c1[nH]/c(=N\c2ccc(Oc3ccon3)cc2)n(Cc2ccc(Cl)cc2)c(=O)n1CCCO` [Compound I-2358], the IC50 is 6 nM. Still for that read-out and setting: then `CCn1c(=O)[nH]/c(=N\c2ccc(Oc3cccc(Cl)n3)cc2)n(Cc2ccc(Cl)cc2)c1=O` [Compound I-2441], with 10 nM. The same measure, in the same setting: then `CCn1c(=O)[nH]/c(=N\c2ccc(Sc3ccc(C(=O)O)cc3)cc2)n(Cc2ccc(Cl)cc2)c1=O` [Compound I-2603], with 125 nM. On the same count and under the same terms, the same measure for `CCn1c(=O)[nH]/c(=N\c2ccc(Oc3cccc(C#N)n3)c(F)c2)n(Cc2ccc(Cl)cc2)c1=O` [Compound I-2492]: 4 nM; for `O=c1[nH]/c(=N\c2ccc(Oc3cnsn3)cc2)n(Cc2ccc(Cl)cc2)c(=O)n1CCO` [Compound I-2477]: 15 nM; for `CNC(=O)Cn1c(=O)[nH]/c(=N\c2ccc(Oc3ncccn3)cc2)n(Cc2ccc(Cl)cc2)c1=O` [Compound I-2687]: 35 nM. Turning to `Cn1c(=O)[nH]/c(=N\c2ccc(Oc3cnc(C(N)=O)cn3)cc2)n(Cc2ccc(Cl)cc2)c1=O` [Compound I-2389], the IC50 amounted to 10 nM. As for `COC(=O)c1cc(Oc2ccc(/N=c3\[nH]c(=O)n(C)c(=O)n3Cc3ccc(Cl)cc3)cc2)ccn1` [Compound I-2377], the half-maximal inhibitory concentration (IC50) came to 15 nM. `CC[C@@H](C)n1c(=O)[nH]/c(=N\c2ccc(Oc3cncc(C(=O)O)c3)cc2)n(Cc2ccc(Cl)cc2)c1=O` [Compound I-2483]: the half-inhibitory concentration (IC50) is 8 nM.

By IC50 is commonly meant the concentration at which inhibition is half-maximal.

Values taken from US9718790B2, “Triazine derivative and pharmaceutical composition having an analgesic activity comprising the same” (SHIONOGI & CO., LTD., priority 2010, dated 2017).
